From patent US20040058957A1, “Benzothiophene derivatives and herbicidal compositions containing the same” (priority 2000, published 2004)

Columns and labels:
Assay type in all cases: in vivo
Settings in all cases: rated 30 days after application
Scirpus juncoides [1] = test: Submersion test, treatment 3 days after transplantation: herbicidal effect
Procedure: (§1) A mixture consisting of 57 parts by weight of talc and 40 parts by weight of bentonite as carrier and 3 parts by weight of sodium alkylbenzenesulfonate as surfactant was pulverized and mixed uniformly to obtain a carrier for wettable powder. Each herbicidal composition was prepared by uniformly pulverizing and mixing 90 parts by weight of the carrier for wettable powder and 10 parts by weight of the benzothiophene derivative produced in each example.
(§2) Seeds of Scirpus juncoides were sowed onto paddy field soil in a Wagner pot of 1/2000 are. Then, rice seedlings of 2.5 leaf stage were transplanted in the soil. Water was pored into the pot so as to submerge the soil at a depth of 3 cm. The pot was placed in a greenhouse maintained at 20 to 25° C. for vegetation. After 3 days from transplantation of the rice seedlings, a predetermined amount of the herbicidal composition prepared in the step [1] was applied to the pot. After 30 days from the application of the herbicidal composition, the herbicidal effect and injury to the paddy rice were determined.
(§3) The herbicidal effect and the injury to crops in the above tests (1) and (2) were evaluated based on the following ratings.
(§4) The degree of weed control (%) was calculated from the weights of the above-ground parts of fresh weeds in the treated area and the untreated area using the following equation:
(§5) Degree of weed control (%)=[1−(weight of weeds in treated area)/(weight of weeds in untreated area)]×100
(§6) The herbicidal effect was determined according to the following ratings: […]

Scirpus juncoides [2] = test: Submersion test, treatment 10 days after transplantation: herbicidal effect
Procedure: as §1
as §2, with “vegetation. After 10 days from” for “vegetation. After 3 days from”
as §3, §4, §5, §6

paddy rice = test: Submersion test, treatment 3 days after transplantation: injury to paddy rice; parameters: key: 0: No injury; 1: Substantially no injury; 2: Slight injury; 3: Some injury; 4: Remarkable injury; 5: Almost all crops dead
Procedure: A mixture consisting of 57 parts by weight of talc and 40 parts by weight of bentonite as carrier and 3 parts by weight of sodium alkylbenzenesulfonate as surfactant was pulverized and mixed uniformly to obtain a carrier for wettable powder. […] Then, rice seedlings of 2.5 leaf stage were transplanted in the soil. Water was pored into the pot so as to submerge the soil at a depth of 3 cm. The pot was placed in a greenhouse maintained at 20 to 25° C. for vegetation. […] After 30 days from the application of the herbicidal composition, the herbicidal effect and injury to the paddy rice were determined. […] The injury to crops was evaluated according to the following ratings: [table]

Structure (SMILES) | Herbicidal effect Scirpus juncoides (Scirpus juncoides [1]; application rate 100 g/ha) | Herbicidal effect Scirpus juncoides (Scirpus juncoides [1]; application rate 200 g/ha) | Herbicidal effect Scirpus juncoides (Scirpus juncoides [2]; application rate 100 g/ha) | Herbicidal effect Scirpus juncoides (Scirpus juncoides [2]; application rate 200 g/ha) | Injury paddy rice (paddy rice; application rate 100 g/ha) | Injury paddy rice (paddy rice; application rate 200 g/ha)
CSC1Cc2c(ccc(C(=O)C3=C(N4CCC=N4)CCCC3=O)c2Cl)S1(=O)=O (stereo not drawn) [Compound No. 38, 4-chloro-2-methylthio-5-[3-(4,5-dihydropyrazol-1-yl)-1-oxo-2-cyclohexen-2-yl]carbonyl-2,3-dihydrobenzothiophene 1,1-dioxide] | 4 (70% or higher but less than 90%) | 5 (90% or higher (almost completely dead)) | 4 (70% or higher but less than 90%) | 5 (90% or higher (almost completely dead)) | 0 | 0
CSC1Cc2c(ccc(C(=O)C3=C(SCCOC(C)=O)CCCC3=O)c2Cl)S1(=O)=O (stereo not drawn) [Compound No. 34, 4-chloro-2-methylthio-5-[3-(2-acetoxyethyl)thio-1-oxo-2-cyclohexen-2-yl]carbonyl-2,3-dihydrobenzothiophene 1,1-dioxide] | 4 (70% or higher but less than 90%) | 5 (90% or higher (almost completely dead)) | 4 (70% or higher but less than 90%) | 5 (90% or higher (almost completely dead)) | 0 | 0
CCSC1Cc2c(ccc(C(=O)C3C(=O)CCCC3=O)c2Cl)S1(=O)=O (stereo not drawn) [Compound No. 2, 4-chloro-2-ethylthio-5-(1,3-cdioxocyclohex-2-yl)carbonyl-2,3-cdihydrobenzothiophene 1,1-dioxide] | 5 (90% or higher (almost completely dead)) | 5 (90% or higher (almost completely dead)) | 5 (90% or higher (almost completely dead)) | 5 (90% or higher (almost completely dead)) | 0 | 0
CSC1Cc2c(ccc(C(=O)C3C(=O)CCCC3=O)c2Br)S1(=O)=O (stereo not drawn) [Compound No. 41, 4-bromo-2-methylthio-5-(1,3-dioxocyclohex-2-yl)carbonyl-2,3-dihydrobenzothiophene 1,1-dioxide] | 5 (90% or higher (almost completely dead)) | 5 (90% or higher (almost completely dead)) | 5 (90% or higher (almost completely dead)) | 5 (90% or higher (almost completely dead)) | 0 | 0
CSC1Cc2c(ccc(C(=O)C3=C(Cl)CCCC3=O)c2Cl)S1(=O)=O (stereo not drawn) [Compound No. 17, 4-chloro-2-methylthio-5-(3-chloro-1-oxo-2-cyclohexen-2-yl)carbonyl-2,3-dihydrobenzothiophene 1,1-dioxide] | 5 (90% or higher (almost completely dead)) | 5 (90% or higher (almost completely dead)) | 5 (90% or higher (almost completely dead)) | 5 (90% or higher (almost completely dead)) | 0 | 0
CCSC1Cc2c(ccc(C(=O)C3=C(Cl)CCCC3=O)c2Cl)S1(=O)=O (stereo not drawn) [Compound No. 19, 4-chloro-2-ethylthio-5-(3-chloro-1-oxo-2-cyclohexen-2-yl)carbonyl-2,3-dihydrobenzothiophene 1,1-dioxide] | 5 (90% or higher (almost completely dead)) | 5 (90% or higher (almost completely dead)) | 4 (70% or higher but less than 90%) | 5 (90% or higher (almost completely dead)) | 0 | 0
CSC1Cc2c(Cl)c(C(=O)C3=C(Cl)CCCC3=O)cc(C)c2S1(=O)=O (stereo not drawn) [Compound No. 49, 4-chloro-7-methyl-2-methylthio-5-(3-chloro-1-oxo-2-cyclohexen-2-yl)carbonyl-2,3-dihydrobenzothiophene 1,1-dioxide] | 5 (90% or higher (almost completely dead)) | 5 (90% or higher (almost completely dead)) | 5 (90% or higher (almost completely dead)) | 5 (90% or higher (almost completely dead)) | 0 | 0
COCCSC1Cc2c(Cl)c(C(=O)C3C(=O)CCCC3=O)cc(C)c2S1(=O)=O (stereo not drawn) [Compound No. 45, 4-chloro-7-methyl-2-(2-methoxyethyl)thio-5-(1,3-dioxocyclohex-2-yl)carbonyl-2,3-dihydrobenzothiophene 1,1-dioxide] | 5 (90% or higher (almost completely dead)) | 5 (90% or higher (almost completely dead)) | 5 (90% or higher (almost completely dead)) | 5 (90% or higher (almost completely dead)) | 0 | 0
CCOC1=C(C(=O)c2ccc3c(c2Cl)CC(SC)S3(=O)=O)C(=O)CCC1 (stereo not drawn) [Compound No. 37, 4-chloro-2-methylthio-5-(3-ethoxy-1-oxo-2-cyclohexen-2-yl)carbonyl-2,3-dihydrobenzothiophene 1,1-dioxide] | 5 (90% or higher (almost completely dead)) | 5 (90% or higher (almost completely dead)) | 5 (90% or higher (almost completely dead)) | 5 (90% or higher (almost completely dead)) | 0 | 0
COC(=O)CSC1Cc2c(ccc(C(=O)C3=C(Cl)CCCC3=O)c2Cl)S1(=O)=O (stereo not drawn) [Compound No. 27, 4-chloro-2-(methoxycarbonylmethyl)thio-5-(3-chloro-1-oxo-2-cyclohexen-2-yl)carbonyl-2,3-dihydrobenzothiophene 1,1-dioxide] | 4 (70% or higher but less than 90%) | 5 (90% or higher (almost completely dead)) | 4 (70% or higher but less than 90%) | 5 (90% or higher (almost completely dead)) | 0 | 0
COCCSC1Cc2c(ccc(C(=O)C3=C(Cl)CCCC3=O)c2Cl)S1(=O)=O (stereo not drawn) [Compound No. 25, 4-chloro-2-(2-methoxyethyl)thio-5-(3-chloro-1-oxo-2-cyclohexen-2-yl)carbonyl-2,3-dihydrobenzothiophene 1,1-dioxide] | 4 (70% or higher but less than 90%) | 5 (90% or higher (almost completely dead)) | 4 (70% or higher but less than 90%) | 5 (90% or higher (almost completely dead)) | 0 | 0
CSC1Cc2c(Cl)c(C(=O)C3=C(n4cccn4)CCCC3=O)cc(C)c2S1(=O)=O (stereo not drawn) [Compound No. 52, 4-chloro-7-methyl-2-methylthio-5-[3-(pyrazol-1-yl) -1-oxo-2-cyclohexen-2-yl]carbonyl-2,3-dihydrobenzothiophene 1,1-dioxide] | 4 (70% or higher but less than 90%) | 5 (90% or higher (almost completely dead)) | 4 (70% or higher but less than 90%) | 5 (90% or higher (almost completely dead)) | 0 | 0
CSC1Cc2c(ccc(C(=O)C3=C(Sc4nccn4C)CCCC3=O)c2Cl)S1(=O)=O (stereo not drawn) [Compound No. 35, 4-chloro-2-methylthio-5-[3-(1-methylimidazol-2-yl)thio-1-oxo-2-cyclohexen-2-yl]carbonyl-2,3-dihydrobenzothiophene 1,1-dioxide] | 4 (70% or higher but less than 90%) | 5 (90% or higher (almost completely dead)) | 4 (70% or higher but less than 90%) | 5 (90% or higher (almost completely dead)) | 0 | 0
